Assay results taken from ChEMBL document CHEMBL1681785, “Structure-activity relationships of flavonoids as inhibitors of breast cancer resistance protein (BCRP)” (Bioorg Med Chem, 2011).
pIC50: −log10 of the molar value. Calls of active or inactive are those of the source. No cut-off for these calls is given here.

Key:
A2780 [1] = assay: Cytotoxicity against human A2780 cells assessed as intracellular ATP level after 72 hrs by luminometry; format: functional, cell-based; details: A2780, 72 h, read-out: IC50
MCF7 [2] = assay: Cytotoxicity against human MCF7 cells assessed as intracellular ATP level after 72 hrs by luminometry; format: functional, cell-based; details: MCF7, 72 h
A2780 [3] = assay: Cytotoxicity against human A2780 cells assessed as intracellular ATP level at 10 uM after 72 hrs by luminometry; format: functional, cell-based
MCF7 [4] = assay: Cytotoxicity against human MCF7 cells assessed as intracellular ATP level at 10 uM after 72 hrs by luminometry; format: functional, cell-based
[5] = biological target: T1, Broad substrate specificity ATP-binding cassette transporter ABCG2 (Homo sapiens, UniProt Q9UNQ0); assay: Inhibition of BCRP expressed in MDCK cells using Hoechst 33342 staining; format: cell-based; details: for pIC50: read-out: IC50; for IC50: mdck
T1 sequence (Q9UNQ0 whole entry): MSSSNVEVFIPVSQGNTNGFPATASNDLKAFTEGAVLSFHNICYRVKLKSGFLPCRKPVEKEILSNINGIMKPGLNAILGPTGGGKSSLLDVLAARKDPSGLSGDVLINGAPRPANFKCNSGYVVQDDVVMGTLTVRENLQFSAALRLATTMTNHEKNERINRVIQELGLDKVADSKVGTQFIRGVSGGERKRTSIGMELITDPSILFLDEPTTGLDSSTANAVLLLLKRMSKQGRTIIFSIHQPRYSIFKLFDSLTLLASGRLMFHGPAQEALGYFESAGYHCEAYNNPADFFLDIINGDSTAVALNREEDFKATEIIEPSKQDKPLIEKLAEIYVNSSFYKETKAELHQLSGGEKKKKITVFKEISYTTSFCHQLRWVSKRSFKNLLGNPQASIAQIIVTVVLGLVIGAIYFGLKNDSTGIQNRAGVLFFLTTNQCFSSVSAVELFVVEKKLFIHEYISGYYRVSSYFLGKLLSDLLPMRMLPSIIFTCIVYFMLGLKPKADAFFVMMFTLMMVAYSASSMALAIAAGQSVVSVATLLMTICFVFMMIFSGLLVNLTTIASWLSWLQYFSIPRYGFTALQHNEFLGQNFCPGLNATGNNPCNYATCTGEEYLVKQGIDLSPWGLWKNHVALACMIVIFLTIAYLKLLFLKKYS

[6] = biological target: T1, Broad substrate specificity ATP-binding cassette transporter ABCG2; assay: Inhibition of BCRP expressed in MCF-7 MX cells using Hoechst 33342 staining; format: cell-based, MCF7; details: for pIC50: read-out: IC50; for IC50: mcf7
A2780 ADR = assay: Inhibition of P-gp expressed in A2780adr cells at 10 uM by calcein AM accumulation assay relative to verapamil; format: cell-based
[7] = Inhibition of P-gp expressed in A2780adr cells by calcein AM accumulation assay; format: cell-based; details: A2780 ADR
[8] = biological target: ATP-dependent translocase ABCB1 (Homo sapiens, UniProt P08183); assay: Inhibition of MDR1 expressed in MDCK cells using rhodamine 123 staining by flow cytometry; format: cell-based
Sequence of ATP-dependent translocase ABCB1 (P08183 whole entry): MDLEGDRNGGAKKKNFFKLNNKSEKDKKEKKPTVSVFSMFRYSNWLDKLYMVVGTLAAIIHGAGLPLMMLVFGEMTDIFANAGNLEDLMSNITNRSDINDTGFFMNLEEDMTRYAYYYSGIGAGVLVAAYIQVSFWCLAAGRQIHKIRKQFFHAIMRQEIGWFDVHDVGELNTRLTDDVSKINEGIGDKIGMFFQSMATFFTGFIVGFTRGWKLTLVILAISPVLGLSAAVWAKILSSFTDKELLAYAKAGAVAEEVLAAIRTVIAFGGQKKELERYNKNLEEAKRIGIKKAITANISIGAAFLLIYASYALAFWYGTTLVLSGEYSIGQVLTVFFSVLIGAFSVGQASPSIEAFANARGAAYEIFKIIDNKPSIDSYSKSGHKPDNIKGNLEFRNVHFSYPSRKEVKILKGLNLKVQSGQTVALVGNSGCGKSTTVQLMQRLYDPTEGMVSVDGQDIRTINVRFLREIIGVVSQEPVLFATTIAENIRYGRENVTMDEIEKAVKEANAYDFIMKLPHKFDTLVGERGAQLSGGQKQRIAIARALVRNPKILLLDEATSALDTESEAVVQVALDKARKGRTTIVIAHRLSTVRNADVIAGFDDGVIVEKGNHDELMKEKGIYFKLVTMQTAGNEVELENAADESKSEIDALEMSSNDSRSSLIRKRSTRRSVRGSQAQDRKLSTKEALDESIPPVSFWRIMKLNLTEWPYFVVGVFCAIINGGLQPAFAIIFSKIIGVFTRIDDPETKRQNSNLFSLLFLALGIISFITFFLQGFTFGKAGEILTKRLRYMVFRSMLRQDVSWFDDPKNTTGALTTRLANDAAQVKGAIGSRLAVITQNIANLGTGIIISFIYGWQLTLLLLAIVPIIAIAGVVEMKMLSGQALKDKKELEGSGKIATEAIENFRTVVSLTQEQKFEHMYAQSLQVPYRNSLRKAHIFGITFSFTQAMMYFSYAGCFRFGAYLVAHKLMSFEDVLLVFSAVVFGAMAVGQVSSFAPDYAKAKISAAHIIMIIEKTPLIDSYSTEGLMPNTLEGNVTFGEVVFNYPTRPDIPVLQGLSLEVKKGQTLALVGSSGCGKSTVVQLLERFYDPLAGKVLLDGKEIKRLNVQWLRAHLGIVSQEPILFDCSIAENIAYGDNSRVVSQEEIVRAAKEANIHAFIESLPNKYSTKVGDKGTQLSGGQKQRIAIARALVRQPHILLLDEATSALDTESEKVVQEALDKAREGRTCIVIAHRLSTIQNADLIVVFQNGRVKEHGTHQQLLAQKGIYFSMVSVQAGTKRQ

SMILES | pIC50 (A2780 [1]) | pIC50 (MCF7 [2]) | Activity (A2780 [3]) | Activity (MCF7 [4]) | pIC50 [5] | pIC50 [6] | inhibition (A2780 ADR) | IC50 [5] | IC50 [6] | pIC50 [7] | pIC50 [8]
COc1cccc2c1C(=O)c1c(O)c3c(c(O)c1C2=O)C[C@@](O)(C(=O)CO)C[C@@H]3O[C@H]1C[C@H](N)[C@H](O)[C@H](C)O1 [DOXORUBICIN] | 7.36 | 7.00 |  |  |  |  |  |  |  |  | 
O=c1cc(-c2ccccc2)oc2ccccc12 [FLAVONE] |  |  | inactive | inactive | 4.77 | 4.59 | inactive |  |  |  | 
O=c1c(-c2ccc(O)cc2)coc2cc(O)cc(O)c12 [GENISTEIN] |  |  | inactive | inactive | 5.16 | 5.06 | inactive |  |  |  | 
O=c1c(O[C@@H]2O[C@H](CO)[C@H](O)[C@H](O)[C@H]2O)c(-c2ccc(O)c(O)c2)oc2cc(O)cc(O)c12 [HYPEROSIDE] |  |  | inactive | inactive |  |  | inactive | Not Active | Not Active |  | 
O=c1c(O)c(-c2ccc(O)cc2)oc2cc(O)cc(O)c12 [KAEMPFEROL] |  |  | inactive | inactive | 5.33 | 5.21 | inactive |  |  |  | 
O=c1c(O)c(-c2ccc(O)cc2O)oc2cc(O)cc(O)c12 [MORIN] |  |  | inactive | inactive | 4.68 | 4.31 | inactive |  |  |  | 
COC1=C(OC)[C@]2(OC)c3c(OC)c(OC)c4c(c3O[C@@]23O[C@@H](c2ccccc2)CC=C3C1=O)[C@@H](O)C[C@H](c1ccccc1)O4 [NEOCALYCOPTERON] | 5.62 | 5.62 | Active | Active | 4.96 | 4.82 | inactive |  |  | 4.92 | 5.10
COc1ccc(-c2cc(=O)c3c(OC)c(OC)c(OC)c(OC)c3o2)cc1OC [NOBILETIN] |  |  | inactive | inactive | 5.31 | 5.36 | inactive |  |  |  | 
COc1cc2oc(-c3ccc(O)cc3)c(OC)c(=O)c2c(O)c1OC [PENDULETIN] |  |  | inactive | inactive | 5.92 | 5.70 | inactive |  |  | 4.82 | 4.85
COc1cc(O)c2c(c1)O[C@H](c1ccccc1)CC2=O [PINOSTROBIN] |  |  | inactive | inactive | 5.05 | 4.51 | inactive |  |  |  | 
O=c1c(O)c(-c2ccc(O)c(O)c2)oc2cc(O)cc(O)c12 [QUERCETIN] |  |  | inactive | inactive | 5.16 | 5.12 | inactive |  |  |  | 
COc1ccc(-c2cc(=O)c3c(OC)c(OC)c(OC)cc3o2)cc1OC [SINENSETIN] |  |  | inactive | inactive | 5.05 | 5.08 | inactive |  |  | 4.47 | 4.54
Cc1c(O)cc2c(c1O)C(=O)CC(c1ccccc1)O2 (centres undefined) [STROBOPININ] |  |  | inactive | inactive | 4.96 | 4.59 | inactive |  |  |  | 
COc1cc2oc(-c3ccccc3)cc(=O)c2c(OC)c1C [Strobochrysin-dimethylether] |  |  | inactive | inactive | 5.23 | 5.10 | inactive |  |  | 5.05 | 4.72
COc1ccc(-c2cc(=O)c3c(OC)c(OC)c(OC)c(OC)c3o2)cc1 [TANGERETIN] |  |  | inactive | inactive | 4.72 | 4.77 | inactive |  |  | 4.72 | 4.41
C[C@@H]1O[C@@H](Oc2ccc(-c3cc(=O)c4c(O)cc(O)c([C@@H]5O[C@H](CO)[C@@H](O)[C@H](O)[C@H]5O)c4o3)cc2)[C@H](O)[C@H](O)[C@H]1O [VITEXIN-4'-RHAMNOSIDE] |  |  | inactive | inactive |  |  | inactive | Not Active | Not Active |  | 
